Reference: patent US20140178892A1, “SCREENING METHODS BASED ON VESICLE MOBILITY” (priority 2011, published 2014)
Values belong to the molecule of their own block, whether it stands above or below them.

Columns and labels:
[1] = tested on: dextran-labeled vesicles carrying MHC class II molecules in astrocytes; test: Mobility of Alexa Fluor 546 dextran-labeled MHC class II vesicles in control and IFNγ activated astrocytes; assay type: cell-based; settings: for average vesicle maximal displacement / average vesicle track length: FIG. 4
Text: (§1) Cell organelles are stained by commercially available dyes and/or by cell transfection. E.g. peptidergic secretory vesicles are labeled by cell transfection for the secretory peptide—pro-atrial natriuretic peptide tagged with emerald green fluorescent protein (ANP.emd; see Han et al., Proc Natl Acad Sci USA. 1999; 96:14577-14582; Krian et al., J. Neurosci. 2003; 23(5):1580-3.). Glutamatergic vesicles are stained by cell transfection for vesicular glutamate transporter 1 tagged with green fluorescent protein (VGLUT1-GFP). ATP containing vesicles are stained by incubation of cells in quinacrine dihydrochloride (1 μM, 15 min at room temperature) (Pangrsic et al., J Biol. Chem. 2007; 28; 282(39):28749-58) and endosomes/lysosomes by incubation of cells in LysoTracker Red DND-99 (200 nM, 5 min, RT, Invitrogen) (Potokar et al., Glia. 2010; 58(10):1208-19). To observe MHC class II expression cells are loaded with 0.1 mg/ml Alexa Fluor^546 dextran (Molecular Probes, Invitrogen) for 16 hours at 37° C.
(§2) Cell cultures are treated with the biologically active substances (i.e. constituents of sera, cerebrospinal fluid and other biologically relevant small inorganic and organic substances, other related substances and mixtures of these), or with the reference standard compound, which consists of FTY720 and FTY720-phosphate (FTY720-P) in ratio from 1:0.1 to 1:100, dissolved in cell culture medium for 10 min at 18-37° C. To observe augmentation of the MHC class II molecule expression, cells are treated with interferon gamma (IFN-γ) for 48 hours at 37° C. or any other stimulant of the antigen presentation.
(§3) Cell loaded coverslips are then rinsed with extracellular solution (consisting of 10 mM HEPES/NaOH (pH 7.2), 10 mM D-glucose, 130 mM NaCl, 2 mM CaCl2, 2 mM MgCl2, and 5 mM KCl) and observed by fluorescence microscopy at 63× or 100× magnification using 488 nm Ar—Ion laser excitation (for ANP.emd, VGLUT1-GFP and quinacrine dihydrochloride) or 543 nm He—Ne laser exitation (for LysoTracker Red DND-99, Alexa Fluor^546 dextran), and band-pass filtered at 505-530 nm or long-pass filtered at 560 nm. Time-lapse fluorescence images are acquired at 0.5-2 Hz for 1-10 minutes to monitor vesicle mobility.
Cells can be stimulated with adenosine triphosphate (ATP) or any other stimulus of exocytotic release to record vesicle mobility and secretion before and after cell stimulation.
(§4) Vesicle traffic is analyzed by particle tracking software previously described (Potokar et al.; Biochem Biophys Res Commun. 2005; 329(2):678-83).
(§5) Several mobility parameters are determined for variable time epochs typically lasting 10-60 seconds: step length (displacement of a vesicle within the two successive frames), speed, track length (TL; the total path traveled by a vesicle within the defined time epoch), the vesicle maximal displacement (MD; a measure for the net translocation of a vesicle within the defined time epoch; cf. Wacker et al., J Cell Sci 110 (Pt 13):1453-63), the angle of MD and the directionality index (DI; the ratio of MD to TL).
The example of vesicle mobility modulation in relation to the antigen presentation in IFNγ activated astrocytes. […] Therefore the mobility analysis of dextran-labeled vesicles can be applied to describe the modulated mobility of the vesicles carrying MHC class II molecules upon stimulation of antigen presentation in astrocytes. […]

[2] = tested on: secretory vesicles in transfected astrocytes expressing ANP.emd; test: Mobility of fluorescently labeled (ANP.emd) secretory vesicles in cultured astrocytes, particle tracking of time-lapse fluorescence images; assay type: cell-based, rat; settings: for mean vesicle track length (TL) / mean vesicle maximal displacement (MD): 10 μM sphingosine, versus standard reference compound (Stand), 15 s epochs; for mean vesicle track length (TL): FIG. 2E; for mean vesicle maximal displacement (MD): FIG. 2F
Procedure: Cultured astrocytes, e.g. isolated as previously described by Schwartz & Wilson (Glia. 1992; 5(1):75-80) or any other cell type isolated from animal tissues or clonal cell lines derived from human or animal sources are seeded onto coverslips and maintained in an adequate cell cultured medium.
as §1
as §2, with “To observe augmentation of the MHC class II molecule expression, cells are treated with interferon gamma (IFN-γ) for 48 hours at 37° C. or any other stimulant of the antigen presentation.” left out
as §3, §4, §5
Example of the analysis of biologically active substances, such as sphingosine and immunoglobulin G (IgG) from human serum, on the mobility of secretory vesicles with respect to the effect of the standard compound, which is also the subject of the present invention. The example is shown in FIGS. 2E and F. The mobility of fluorescently labeled vesicles in transfected astrocytes expressing ANP.emd was analyzed by particle analyzing program Track2 and quantitative parameters of vesicle mobility were determined. […]

[3] = tested on: MHC class II molecules in astrocytes; test: MHC class II expression in astrocytes by immunostaining and fluorescence microscopy; assay type: cell-based; settings: IFNγ treated versus control astrocytes; overlay with dextran loaded structures; FIG. 3
Text: as §1, with “C. […]” for “C.”

[4] = cell stimulation with 1 mM ATP, control and IFNγ treated cells
[5] = IFNγ treated astrocytes versus non-treated control cells (Spon.)

Molecule: Nc1ncnc2c1ncn2[C@@H]1O[C@H](COP(=O)(O)OP(=O)(O)OP(=O)(O)O)[C@@H](O)[C@H]1O [ATP, adenosine triphosphate]
average vesicle maximal displacement [1, 4]: reduces | average vesicle track length [1, 4]: reduces

mean vesicle maximal displacement (MD) [2]: significantly attenuates | mean vesicle maximal displacement (MD) ([2]; listed as Sphingosine): strongly attenuates
Molecule: CCCCCCCCCCCCC/C=C/[C@@H](O)[C@@H](N)CO [sphingosine]
mean vesicle track length (TL) [2]: significantly attenuates | mean vesicle track length (TL) ([2]; listed as Sphingosine): strongly attenuates | vesicle mobility ([2]; dependence on extracellular concentration, regions near the plasmalemma and deeper in the cytoplasm): dose-dependently attenuated

average vesicle maximal displacement [1, 5]: significantly increase
B1: IFNγ: cytokine interferon gamma (protein, UniProt P01579 24-161, looked up)
Interferon gamma: QDPYVKEAENLKKYFNAGHSDVADNGTLFLGILKNWKEESDRKIMQSQIVSFYFKLFKNFKDDQSIQKSVETIKEDMNVKFFNSNKKKRDDFEKLTNYSVTDLNVQRKAIHELIQVMAELSPAAKTGKRKRSQMLFRG
average vesicle track length [1, 5]: significantly increase | mobility, in particular long-range mobility, of MHC class II-positive vesicles ([1]; astrocytes exposed to interferon-γ): enhanced | expression of MHC class II molecules [3]: induces
